The source of these data is patent US10093696B2, “Nitric oxide donating carnosine compounds” (NICOX SCIENCE IRELAND, priority 2014, dated 2018).

Structures are written as SMILES.

Assay [1] relates to hypertonic saline-induced IOP increase in rabbits. Put plainly: Intraocular pressure (IOP) lowering activity in hypertonic saline-induced IOP increase in rabbits. It is filed as in vivo, New Zealand White rabbits. The following applies: for IOP change 60 minutes / IOP change 120 minutes / IOP change 240 minutes: single topical application; for IOP reduction after single application (in words): compared to ISMN and timolol. The method, then:
The present study evaluated the intraocular pressure lowering effect of single applications of two compounds of the inventions (compound (1a) and compound (4a)) and two reference compounds at the same concentrations and in rabbits with induced IOP increase.
Adult male New Zealand White rabbits weighting 1.8-2.0 Kg were used in the experiments.
The transient increase in IOP was induced by the injection of 0.1 ml of hypertonic saline solution (5%) into the vitreous bilaterally (Krauss et al., 2011, Orihashi et al., 2005).
(§1) IOP was measured using a Tono-Pen XL prior to hypertonic saline injection (basal) and at 30, 60, 120 and 240 min thereafter. Vehicle (5% cremophor-EL; 0.3% DMSO; 0.2 mg/ml Benzalkonium chloride in PBS pH 6.0) or compound (1.0%) was instilled as eye drops immediately after hypertonic saline injection. Eyes were randomly assigned to different treatment groups. Vehicle and compounds were directly instilled into the conjunctiva pocket at the desired doses. One drop of 0.4% oxybuprocaine hydrochloride (Novesine, Sandoz) was instilled in each eye immediately before each set of pressure measurements.
Results are reported in Table 1 and they are expressed as IOP change (at 60, 120 and 240 minutes following topical administration) versus vehicle and versus IOP at basal before hypertonic saline injection.
Hypertonic Saline-Induced IOP Increase Rabbit Model
as §1, with “compound (9)” for “compound”, “compound (9)” for “compounds”
Experimental data are reported in Table 3 and they are expressed as IOP change (at 60, 120 and 240 minutes following topical administration) versus vehicle and versus IOP at basal before hypertonic saline injection
The hypotensive effects of compound (9) and of ISMN and timolol were evaluated using the same transient ocular hypertensive rabbit model, see Example 9, but in different groups of hypertensive rabbits.

Assay [2] has as its system ocular normotensive rabbits. Put plainly: Intraocular pressure (IOP) lowering activity in ocular normotensive New Zealand White rabbits. Particulars: 1% eye drops; for duration of IOP reduction after single application (in words): compared to the reference compound; for IOP change 60 minutes / IOP change 120 minutes / IOP change 180 minutes / IOP change 240 minutes / IOP change 30 minutes / IOP change 300 minutes: single topical application. In kind it is in vivo, New Zealand White (NZW) rabbits. The method, then:
The present study evaluated the long lasting intraocular pressure lowering effect of single application of two compounds of the inventions (compound (1a) and compound (4a)) with respect to a prior art compound, in an ocular normotensive animal model (rabbit) at the same concentrations.
Adult male New Zealand White (NZW) rabbits weighting 1.8-2.0 Kg were used in the experiments.
IOP was measured using a pneumatonometer 30 CLASSIC™ before topical application (basal) and at different time points (30, 60, 120, 240 and 300 min) thereafter. Vehicle (5% cremophor-EL; 0.3% DMSO; 0.2 mg/ml bac in PBS pH 6.0) or compound of the invention were instilled as eye drops into the conjunctiva pocket. Eyes were randomly assigned to different treatment groups. One drop of 0.4% oxybuprocaine hydrochloride (Novesine, Sandoz) was instilled in each eye immediately before each set of pressure measurements. Results are reported in Table 2 and they are expressed as IOP change (at 60, 120, 180 and 240 minutes following topical administration) versus vehicle and versus IOP at basal.
Ocular Normotensive Rabbit Model
IOP was measured using a pneumatonometer 30 CLASSIC™ before topical application (basal) and at different time points (30, 60, 120, 240 and 300 min) thereafter. Vehicle (5% cremophor-EL; 0.3% DMSO; 0.2 mg/ml bac in PBS pH 6.0) or compound (9) (1%) were instilled as eye drops into the conjunctiva pocket. Eyes were randomly assigned to different treatment groups. One drop of 0.4% oxybuprocaine hydrochloride (Novesine, Sandoz) was instilled in each eye immediately before each set of pressure measurements.
Experimental data are reported in Table 4 and they are expressed as IOP change (at 60, 120, 180 and 240 minutes following topical administration) versus vehicle and versus IOP at basal.
The IOP-lowering effects of compound (9) and of the Reference compound were assessed in the same normotensive rabbit model, see Example 10, but using different groups of […] rabbits.

[3] abbreviates: Table 1, conc. 1% eye drops, versus vehicle and versus basal IOP.
Where [4] appears, read: Table 3, 1% eye drops, versus vehicle and basal, references from different groups of rabbits (Example 9).
[5] abbreviates: Table 2, versus vehicle and versus basal IOP.
[6] abbreviates: Table 4, versus vehicle and basal, reference from different groups of rabbits (Example 10).

As for `O=[N+]([O-])O[C@@H]1CO[C@H]2[C@@H]1OC[C@@H]2O` [ISMN, Isosorbide mononitrate, reference compound], in assay [1] (setting [3]), the “IOP change 60 minutes” value is −0.7 ± 2.9 mmHg, the “IOP change 120 minutes” value was −6.6 ± 1.8 mmHg and the “IOP change 240 minutes” value is −1.2 ± 1.3 mmHg. Also, in assay [1] (setting [4]), the “IOP change 60 minutes” value was −0.7 ± 2.9 mmHg, the “IOP change 120 minutes” value was −6.6 ± 1.8 mmHg and the “IOP change 240 minutes” value is reported as −1.2 ± 1.3 mmHg.
For the compound `O=C(CCCCCO[N+](=O)[O-])NCCC(=O)N[C@@H](Cc1c[nH]cn1)C(=O)O` [Compound (4a), (S)-3-(1H-imidazol-4-yl)-2-(3-(6-(nitrooxy)hexanamido)propanamido) propanoic acid 2,2,2-trifluoroacetate], the “IOP reduction after single application (in words)” value in assay [1] (1% eye drops) is listed as “significant IOP reduction”. In assay [1] (setting [3]), the “IOP change 60 minutes” value is given as −7.6 ± 1.6 mmHg, the “IOP change 120 minutes” value is on record as −9.0 ± 1.2 mmHg and the “IOP change 240 minutes” value is reported as −5.3 ± 0.6 mmHg. The “duration of IOP reduction after single application (in words)” value (“duration of IOP reduction” for short) in assay [2] is “significantly longer IOP reduction”. In addition, in assay [2] (setting [5]), the “IOP change 60 minutes” value is listed as −1.6 ± 0.4 mmHg, the “IOP change 120 minutes” value is recorded as −1.5 ± 0.6 mmHg, the “IOP change 180 minutes” value was −1.4 ± 0.6 mmHg and the “IOP change 240 minutes” value is listed as −0.9 ± 0.6 mmHg.
As to `COC(=O)[C@H](Cc1c[nH]cn1)NC(=O)CCNC(=O)CCCCO[N+](=O)[O-].Cl` [Compound (1a), (S)-methyl-3-(1H-imidazol-4-yl)-2-(3-(5-(nitrooxy)pentanamido)propanamido)propanoate hydrochloride], the “IOP reduction after single application (in words)” value in assay [1] (1% eye drops) is recorded as “significant IOP reduction”. Besides, in assay [1] (setting [3]), the “IOP change 60 minutes” value is on record as −11.4 ± 0.8 mmHg, the “IOP change 120 minutes” value is −12.9 ± 0.4 mmHg and the “IOP change 240 minutes” value is recorded as −7.4 ± 0.5 mmHg. In assay [2], the “duration of IOP reduction” value is “significantly longer IOP reduction”. Further, in assay [2] (setting [5]), the “IOP change 60 minutes” value was −1.2 ± 1.0 mmHg, the “IOP change 120 minutes” value is given as −1.5 ± 0.9 mmHg, the “IOP change 180 minutes” value was −1.9 ± 0.9 mmHg and the “IOP change 240 minutes” value is −1.7 ± 1.2 mmHg.
With `COC(=O)[C@H](Cc1c[nH]cn1)NC(=O)CCNC(=O)CCC[C@@H](CO[N+](=O)[O-])O[N+](=O)[O-]` [Compound (9), (S)-methyl 2-(3-((S)-5,6-bis(nitrooxy)hexanamido)propanamido)-3-(1H-imidazol-4-yl)propanoate], the “IOP reduction after single application (in words)” value in assay [1] (1% eye drops) is “significant IOP reduction”. In assay [1] (setting [4]), the “IOP change 60 minutes” value is listed as −7.2 ± 1.0 mmHg, the “IOP change 120 minutes” value is listed as −6.4 ± 1.0 mmHg and the “IOP change 240 minutes” value is listed as −3.9 ± 0.9 mmHg. The “duration of IOP reduction” value in assay [2] is recorded as “long lasting IOP-lowering effect”. In assay [2] (setting [6]), the “IOP change 30 minutes” value is recorded as −1.6 ± 0.2 mmHg, the “IOP change 60 minutes” value was −1.0 ± 0.4 mmHg, the “IOP change 120 minutes” value is −1.3 ± 0.2 mmHg and the “IOP change 180 minutes” value is −1.3 ± 0.3 mmHg. Further, in assay [2] (setting [6]), the “IOP change 240 minutes” value is given as −1.5 ± 0.4 mmHg and the “IOP change 300 minutes” value is −1.5 ± 0.4 mmHg.
Turning to `CC(C)(C)NC[C@H](O)COc1nsnc1N1CCOCC1` [Timolol, reference compound], in assay [1] (setting [3]), the “IOP change 60 minutes” value is reported as −5.7 ± 1.4 mmHg, the “IOP change 120 minutes” value is −8.4 ± 1.2 mmHg and the “IOP change 240 minutes” value was 0.2 ± 1.2 mmHg. Besides, in assay [1] (setting [4]), the “IOP change 60 minutes” value is recorded as −5.7 ± 1.4 mmHg, the “IOP change 120 minutes” value is reported as −8.4 ± 1.2 mmHg and the “IOP change 240 minutes” value is recorded as 0.2 ± 1.2 mmHg.
In the case of `NCCC(=O)N[C@@H](Cc1c[nH]cn1)C(=O)NC[C@H](CO[N+](=O)[O-])O[N+](=O)[O-].O=C(O)C(F)(F)F` [Ref. compound, (R)-3-((S)-2-(3-aminopropanamido)-3-(1H-imidazol-4-yl)propanamido)propane-1,2-diyl dinitrate 2,2,2-trifluoroacetate, reference compound], in assay [2] (setting [5]), the “IOP change 60 minutes” value is on record as −0.8 ± 0.6 mmHg, the “IOP change 120 minutes” value is on record as −0.3 ± 0.4 mmHg, the “IOP change 180 minutes” value is given as −0.2 ± 0.4 mmHg and the “IOP change 240 minutes” value was −0.05 ± 0.6 mmHg. For the same compound, in assay [2] (setting [6]), the “IOP change 30 minutes” value is listed as −1.0 ± 0.5 mmHg, the “IOP change 60 minutes” value is −0.8 ± 0.6 mmHg, the “IOP change 120 minutes” value was −0.3 ± 0.4 mmHg and the “IOP change 180 minutes” value is given as −0.2 ± 0.4 mmHg. Further, in assay [2] (setting [6]), the “IOP change 240 minutes” value is −0.05 ± 0.6 mmHg and the “IOP change 300 minutes” value was −0.7 ± 0.4 mmHg.
